Measured values published in patent US6150385A, “1,3,4-thiadiazoles useful for the treatment of CMV infections” (Pharmacia & Upjohn Company, priority 1999, dated 2000).

Target: T1, HCMV polymerase (Human cytomegalovirus, UniProt P08546)
T1 construct: made in house; host or cells: SF-9 insect cells infected with recombinant baculovirus
Assay: HCMV polymerase assay (scintillation proximity assay)
Format: biochemical
Conditions: percentage of inhibition at 25 μM concentration in CMV polymerase assay
Outline: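 Values are percent inhibition at 25 μM, measured by scintillation proximity after capture of biotinylated poly(dA)-oligo(dT) (6 nM) extended with 90 nM 3H-dTTP. Recombinant SF-9-derived enzyme reacted 30 min at 25 or 37 °C in HEPES pH 7.5/KCl/MgCl2/BSA buffer, ±2 mM CHAPS, before EDTA termination.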

T1 sequence (P08546 whole entry): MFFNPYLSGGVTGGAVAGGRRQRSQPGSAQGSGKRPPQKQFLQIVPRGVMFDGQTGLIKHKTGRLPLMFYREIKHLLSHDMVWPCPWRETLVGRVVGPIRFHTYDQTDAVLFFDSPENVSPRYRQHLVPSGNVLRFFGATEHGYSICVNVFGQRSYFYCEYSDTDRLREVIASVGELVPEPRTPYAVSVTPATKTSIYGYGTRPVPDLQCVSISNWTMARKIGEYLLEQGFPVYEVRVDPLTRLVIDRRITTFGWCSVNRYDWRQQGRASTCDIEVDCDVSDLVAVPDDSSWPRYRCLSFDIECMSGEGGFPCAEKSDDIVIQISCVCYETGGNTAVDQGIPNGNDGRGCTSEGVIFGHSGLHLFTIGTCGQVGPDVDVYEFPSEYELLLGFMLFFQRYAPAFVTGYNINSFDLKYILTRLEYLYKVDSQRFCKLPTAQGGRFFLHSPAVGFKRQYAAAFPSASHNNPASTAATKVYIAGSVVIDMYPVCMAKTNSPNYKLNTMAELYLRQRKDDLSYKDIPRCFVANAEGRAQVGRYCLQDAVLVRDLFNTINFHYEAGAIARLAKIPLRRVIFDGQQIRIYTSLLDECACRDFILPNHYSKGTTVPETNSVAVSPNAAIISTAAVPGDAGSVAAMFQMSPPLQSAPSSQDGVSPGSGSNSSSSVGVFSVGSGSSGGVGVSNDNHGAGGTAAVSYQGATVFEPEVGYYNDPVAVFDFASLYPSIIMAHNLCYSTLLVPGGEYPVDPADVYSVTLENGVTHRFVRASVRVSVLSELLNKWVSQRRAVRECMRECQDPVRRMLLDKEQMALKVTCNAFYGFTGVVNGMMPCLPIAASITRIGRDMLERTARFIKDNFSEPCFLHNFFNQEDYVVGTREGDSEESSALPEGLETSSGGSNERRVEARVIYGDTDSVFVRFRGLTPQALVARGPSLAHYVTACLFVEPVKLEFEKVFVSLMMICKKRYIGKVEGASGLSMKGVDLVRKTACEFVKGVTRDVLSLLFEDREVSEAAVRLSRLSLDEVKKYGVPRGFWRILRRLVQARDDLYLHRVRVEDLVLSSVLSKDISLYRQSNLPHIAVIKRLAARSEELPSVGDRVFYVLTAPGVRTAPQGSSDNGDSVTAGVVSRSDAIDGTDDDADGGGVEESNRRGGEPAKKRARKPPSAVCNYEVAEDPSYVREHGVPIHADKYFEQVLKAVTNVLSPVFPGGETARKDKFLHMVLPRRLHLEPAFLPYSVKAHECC

inhibition at 25 µM	Compound
36.2%	O=C(Nc1nnc(NC2CCCCCC2)s1)c1ccc(I)cc1 [compound 288, N-[5-(cycloheptylamino)-1,3,4-thiadiazol-2-yl]-4-iodobenzamide]
32.7%	O=C(/C=C/c1ccccc1)Nc1nnc(NCc2ccc(F)cc2)s1 [compound 326, (E)-N-{5-[(4-fluorobenzyl)amino]-1,3,4-thiadiazol-2-yl}-3-phenyl-2-propenamide]
23.2%	COc1ccccc1C(=O)Nc1nnc(NCCCCc2ccccc2)s1 [compound 429, 2-methoxy-N-{5-[(4-phenylbutyl)amino]-1,3,4-thiadiazol-2-yl}benzamide]
39.1%	CC(C)c1cc(C(C)C)c(C(=O)Nc2nnc(NC3CCN(Cc4ccccc4)CC3)s2)c(C(C)C)c1 [compound 265, N-{5-[(1-benzyl-4-piperidinyl)amino]-1,3,4-thiadiazol-2-yl}-2,4,6-triisopropylbenzamide]
77.4%	O=C(Nc1nnc(NCC(c2ccccc2)c2ccccc2)s1)c1c(Cl)cccc1Cl [compound 56, 2,6-dichloro-N-{5-[(2,2-diphenylethyl)amino]-1,3,4-thiadiazol-2-yl}benzamide]
68.3%	O=C(/C=C/c1ccccc1)Nc1nnc(NCCc2cccs2)s1 [compound 77, (E)-3-phenyl-N-(5-{[2-(2-thienyl)ethyl]amino}-1,3,4-thiadiazol-2-yl)-2-propenamide]
37%	CCCCC(CC)CNc1nnc(NC(=O)c2c(Cl)cccc2Cl)s1 (centres unmarked) [compound 283, 2,6-dichloro-N-{5-[(2-ethylhexyl)amino]-1,3,4-thiadiazol-2-yl}benzamide]
28.8%	O=C(Nc1nnc(NCc2cccc3ccccc23)s1)c1ccc(F)cc1F [compound 363, 2,4-difluoro-N-{5-[(1-naphthylmethyl)amino]-1,3,4-thiadiazol-2-yl}benzamide]
44.9%	O=C(Nc1nnc(NCCSc2ccccc2)s1)c1ccc(F)cc1F [compound 205, 2,4-difluoro-N-(5-{[2-(phenylsulfanyl)ethyl]amino}-1,3,4-thiadiazol-2-yl)benzamide]
32%	CC(=O)NCCNc1nnc(NC(=O)c2c(C(C)C)cc(C(C)C)cc2C(C)C)s1 [compound 332, N-(5-{[2-(acetylamino)ethyl]amino}-1,3,4-thiadiazol-2-yl)-2,4,6-triisopropylbenzamide]
49%	O=C(/C=C/c1ccccc1)Nc1nnc(NCc2ccc3c(c2)OCO3)s1 [compound 178, (E)-N-{5-[(1,3-benzodioxol-5-ylmethyl)amino]-1,3,4-thiadiazol-2-yl}-3-phenyl-2-propenamide]
34%	CCSCCNc1nnc(NC(=O)c2ccc(Br)cc2)s1 [compound 309, 4-bromo-N-(5-{[2-(ethylsulfanyl)ethyl]amino}-1,3,4-thiadiazol-2-yl)benzamide]
50.7%	CC(C)c1cc(C(C)C)c(C(=O)Nc2nnc(NCCN3CCCC3)s2)c(C(C)C)c1 [compound 169, 2,4,6-triisopropyl-N-(5-{[2-(1-pyrrolidinyl)ethyl]amino}-1,3,4-thiadiazol-2-yl)benzamide]
58.9%	O=C(Nc1nnc(NCCCNC2CCCCC2)s1)c1ccc([N+](=O)[O-])o1 [compound 126, N-(5-{[3-(cyclohexylamino)propyl]amino}-1,3,4-thiadiazol-2-yl)-5-nitro-2-furamide]
65.8%	CCOc1ccc2ccccc2c1C(=O)Nc1nnc(NCCc2cccs2)s1 [compound 97, 2-ethoxy-N-(5-{[2-(2-thienyl)ethyl]amino}-1,3,4-thiadiazol-2-yl)-1-naphthamide]
27.2%	O=C(Nc1nnc(NCC2CCCCC2)s1)c1ccc(Cl)c(Cl)c1 [compound 384, 3,4-dichloro-N-{5-[(cyclohexylmethyl)amino]-1,3,4-thiadiazol-2-yl}benzamide]
45.3%	O=C(Nc1nnc(NC2CCCCCC2)s1)c1cccc([N+](=O)[O-])c1 [compound 201, N-[5-(cycloheptylamino)-1,3,4-thiadiazol-2-yl]-3-nitrobenzamide]
42%	O=C(Nc1nnc(NCCc2cccs2)s1)c1cc2ccccc2s1 [compound 234, N-(5-{[2-(2-thienyl)ethyl]amino}-1,3,4-thiadiazol-2-yl)-1-benzothiophene-2-carboxamide]
46%	O=C(Nc1nnc(NCCSc2ccccc2)s1)c1ccc(I)cc1 [compound 198, 4-iodo-N-(5-{[2-(phenylsulfanyl)ethyl]amino}-1,3,4-thiadiazol-2-yl)benzamide]
31.8%	COc1ccccc1C(=O)Nc1nnc(NCc2cccc3ccccc23)s1 [compound 334, 2-methoxy-N-{5-[(1-naphthylmethyl)amino]-1,3,4-thiadiazol-2-yl}benzamide]
21.2%	O=C(Nc1nnc(NCCc2c[nH]cn2)s1)c1ccc(I)cc1 [compound 454, N-(5-{[2-(1H-imidazol-4-yl)ethyl]amino}-1,3,4-thiadiazol-2-yl)-4-iodobenzamide]

inhibition at 25 µM	Compound
25.8%	CC(C)c1cc(C(C)C)c(C(=O)Nc2nnc(NCc3cccnc3)s2)c(C(C)C)c1 [compound 399, 2,4,6-triisopropyl-N-{5-[(3-pyridinylmethyl)amino]-1,3,4-thiadiazol-2-yl}benzamide]
77.7%	O=C(Nc1nnc(NCc2ccncc2)s1)c1ccc2c(c1)C(=O)OC2=O [compound 54, 1,3-dioxo-N-{5-[(4-pyridinylmethyl)amino]-1,3,4-thiadiazol-2-yl}-1,3-dihydro-2-benzofuran-5-carboxamide]
83.9%	CCOc1ccc2ccccc2c1C(=O)Nc1nnc(NCc2ccc3c(c2)OCO3)s1 [compound 43, N-{5-[(1,3-benzodioxol-5-ylmethyl)amino]-1,3,4-thiadiazol-2-yl}-2-ethoxy-1-naphthamide]
21.6%	O=C(Nc1nnc(NCCc2c[nH]cn2)s1)c1c(Cl)cccc1Cl [compound 448, 2,6-dichloro-N-(5-{[2-(1H-imidazol-4-yl)ethyl]amino}-1,3,4-thiadiazol-2-yl)benzamide]
71.9%	CCOc1ccc2ccccc2c1C(=O)Nc1nnc(NCc2cccnc2)s1 [compound 66, 2-ethoxy-N-{5-[(3-pyridinylmethyl)amino]-1,3,4-thiadiazol-2-yl}-1-naphthamide]
32.9%	O=C(Nc1nnc(NCCCn2ccnc2)s1)c1ccc(I)cc1 [compound 324, N-(5-{[3-(1H-imidazol-1-yl)propyl]amino}-1,3,4-thiadiazol-2-yl)-4-iodobenzamide]
23.1%	CCOc1ccc2ccccc2c1C(=O)Nc1nnc(NCC2CCCCC2)s1 [compound 431, N-{5-[(cyclohexylmethyl)amino]-1,3,4-thiadiazol-2-yl}-2-ethoxy-1-naphthamide]
99.9%	O=C(Nc1nnc(NCCNc2ccccc2)s1)c1ccc2c(c1)C(=O)OC2=O [compound 6, N-{5-[(2-anilinoethyl)amino]-1,3,4-thiadiazol-2-yl}-1,3-dioxo-1,3-dihydro-2-benzofuran-5-carboxamide]
61.5%	O=C(/C=C/c1ccccc1Cl)Nc1nnc(NCc2ccc3c(c2)OCO3)s1 [compound 117, (E)-N-{5-[(1,3-benzodioxol-5-ylmethyl)amino]-1,3,4-thiadiazol-2-yl}-3-(2-chlorophenyl)-2-propenamide]
41.6%	O=C(Nc1nnc(NCCNc2ccccc2)s1)c1cc2ccccc2s1 [compound 236, N-{5-[(2-anilinoethyl)amino]-1,3,4-thiadiazol-2-yl}-1-benzothiophene-2-carboxamide]
48.2%	O=C(Nc1nnc(NCC(c2ccccc2)c2ccccc2)s1)c1ccc(F)cc1F [compound 182, N-{5-[(2,2-diphenylethyl)amino]-1,3,4-thiadiazol-2-yl}-2,4-difluorobenzamide]
28.3%	O=C(Nc1nnc(NC2CCCCCC2)s1)c1c(Cl)cccc1Cl [compound 369, 2,6-dichloro-N-[5-(cycloheptylamino)-1,3,4-thiadiazol-2-yl]benzamide]
54.8%	N#CCCNc1nnc(NC(=O)c2c(Cl)cccc2Cl)s1 [compound 146, 2,6-dichloro-N-{5-[(2-cyanoethyl)amino]-1,3,4-thiadiazol-2-yl}benzamide]
33.8%	O=C(CCCCCl)Nc1nnc(NCC2CCCCC2)s1 [compound 315, 5-chloro-N-{5-[(cyclohexylmethyl)amino]-1,3,4-thiadiazol-2-yl}pentanamide]
21.5%	Cc1ccc(C(=O)Nc2nnc(NCC3CCCCC3)s2)cc1 [compound 449, N-{5-[(cyclohexylmethyl)amino]-1,3,4-thiadiazol-2-yl}-4-methylbenzamide]
24.9%	O=C(Nc1nnc(NCCNc2ccccc2)s1)c1ccc(Cl)c(Cl)c1 [compound 408, N-{5-[(2-anilinoethyl)amino]-1,3,4-thiadiazol-2-yl}-3,4-dichlorobenzamide]
32.1%	O=C(/C=C/c1ccccc1)Nc1nnc(NCCC(c2ccccc2)c2ccccc2)s1 [compound 331, (E)-N-{5-[(3,3-diphenylpropyl)amino]-1,3,4-thiadiazol-2-yl}-3-phenyl-2-propenamide]
31.5%	O=C(Nc1nnc(NCCNc2ccccc2)s1)c1ccc(I)cc1 [compound 339, N-{5-[(2-anilinoethyl)amino]-1,3,4-thiadiazol-2-yl}-4-iodobenzamide]
34.4%	O=C(Nc1nnc(NCC(c2ccccc2)c2ccccc2)s1)c1ccc([N+](=O)[O-])o1 [compound 306, N-{5-[(2,2-diphenylethyl)amino]-1,3,4-thiadiazol-2-yl}-5-nitro-2-furamide]
67.9%	O=C(/C=C/c1ccccc1)Nc1nnc(NCCCCc2ccccc2)s1 [compound 81, (E)-3-phenyl-N-{5-[(4-phenylbutyl)amino]-1,3,4-thiadiazol-2-yl}-2-propenamide]
